Calls of active or inactive are those of the source. No cut-off for these calls is given here.
Experiments:
[1] = biological target: T1, Histone acetyltransferase p300/Hypoxia-inducible factor 1-alpha (Homo sapiens, UniProt Q09472+Q16665); assay: Inhibition of human C-terminal activation domain of HIF-1alpha/CH1 domain of GST-p300 interaction using F-786-826 at 200 uM by fluorescence polarization based assay; type: protein-complex assay
Target sequence in this assay (Q09472 2-2414 limits assumed): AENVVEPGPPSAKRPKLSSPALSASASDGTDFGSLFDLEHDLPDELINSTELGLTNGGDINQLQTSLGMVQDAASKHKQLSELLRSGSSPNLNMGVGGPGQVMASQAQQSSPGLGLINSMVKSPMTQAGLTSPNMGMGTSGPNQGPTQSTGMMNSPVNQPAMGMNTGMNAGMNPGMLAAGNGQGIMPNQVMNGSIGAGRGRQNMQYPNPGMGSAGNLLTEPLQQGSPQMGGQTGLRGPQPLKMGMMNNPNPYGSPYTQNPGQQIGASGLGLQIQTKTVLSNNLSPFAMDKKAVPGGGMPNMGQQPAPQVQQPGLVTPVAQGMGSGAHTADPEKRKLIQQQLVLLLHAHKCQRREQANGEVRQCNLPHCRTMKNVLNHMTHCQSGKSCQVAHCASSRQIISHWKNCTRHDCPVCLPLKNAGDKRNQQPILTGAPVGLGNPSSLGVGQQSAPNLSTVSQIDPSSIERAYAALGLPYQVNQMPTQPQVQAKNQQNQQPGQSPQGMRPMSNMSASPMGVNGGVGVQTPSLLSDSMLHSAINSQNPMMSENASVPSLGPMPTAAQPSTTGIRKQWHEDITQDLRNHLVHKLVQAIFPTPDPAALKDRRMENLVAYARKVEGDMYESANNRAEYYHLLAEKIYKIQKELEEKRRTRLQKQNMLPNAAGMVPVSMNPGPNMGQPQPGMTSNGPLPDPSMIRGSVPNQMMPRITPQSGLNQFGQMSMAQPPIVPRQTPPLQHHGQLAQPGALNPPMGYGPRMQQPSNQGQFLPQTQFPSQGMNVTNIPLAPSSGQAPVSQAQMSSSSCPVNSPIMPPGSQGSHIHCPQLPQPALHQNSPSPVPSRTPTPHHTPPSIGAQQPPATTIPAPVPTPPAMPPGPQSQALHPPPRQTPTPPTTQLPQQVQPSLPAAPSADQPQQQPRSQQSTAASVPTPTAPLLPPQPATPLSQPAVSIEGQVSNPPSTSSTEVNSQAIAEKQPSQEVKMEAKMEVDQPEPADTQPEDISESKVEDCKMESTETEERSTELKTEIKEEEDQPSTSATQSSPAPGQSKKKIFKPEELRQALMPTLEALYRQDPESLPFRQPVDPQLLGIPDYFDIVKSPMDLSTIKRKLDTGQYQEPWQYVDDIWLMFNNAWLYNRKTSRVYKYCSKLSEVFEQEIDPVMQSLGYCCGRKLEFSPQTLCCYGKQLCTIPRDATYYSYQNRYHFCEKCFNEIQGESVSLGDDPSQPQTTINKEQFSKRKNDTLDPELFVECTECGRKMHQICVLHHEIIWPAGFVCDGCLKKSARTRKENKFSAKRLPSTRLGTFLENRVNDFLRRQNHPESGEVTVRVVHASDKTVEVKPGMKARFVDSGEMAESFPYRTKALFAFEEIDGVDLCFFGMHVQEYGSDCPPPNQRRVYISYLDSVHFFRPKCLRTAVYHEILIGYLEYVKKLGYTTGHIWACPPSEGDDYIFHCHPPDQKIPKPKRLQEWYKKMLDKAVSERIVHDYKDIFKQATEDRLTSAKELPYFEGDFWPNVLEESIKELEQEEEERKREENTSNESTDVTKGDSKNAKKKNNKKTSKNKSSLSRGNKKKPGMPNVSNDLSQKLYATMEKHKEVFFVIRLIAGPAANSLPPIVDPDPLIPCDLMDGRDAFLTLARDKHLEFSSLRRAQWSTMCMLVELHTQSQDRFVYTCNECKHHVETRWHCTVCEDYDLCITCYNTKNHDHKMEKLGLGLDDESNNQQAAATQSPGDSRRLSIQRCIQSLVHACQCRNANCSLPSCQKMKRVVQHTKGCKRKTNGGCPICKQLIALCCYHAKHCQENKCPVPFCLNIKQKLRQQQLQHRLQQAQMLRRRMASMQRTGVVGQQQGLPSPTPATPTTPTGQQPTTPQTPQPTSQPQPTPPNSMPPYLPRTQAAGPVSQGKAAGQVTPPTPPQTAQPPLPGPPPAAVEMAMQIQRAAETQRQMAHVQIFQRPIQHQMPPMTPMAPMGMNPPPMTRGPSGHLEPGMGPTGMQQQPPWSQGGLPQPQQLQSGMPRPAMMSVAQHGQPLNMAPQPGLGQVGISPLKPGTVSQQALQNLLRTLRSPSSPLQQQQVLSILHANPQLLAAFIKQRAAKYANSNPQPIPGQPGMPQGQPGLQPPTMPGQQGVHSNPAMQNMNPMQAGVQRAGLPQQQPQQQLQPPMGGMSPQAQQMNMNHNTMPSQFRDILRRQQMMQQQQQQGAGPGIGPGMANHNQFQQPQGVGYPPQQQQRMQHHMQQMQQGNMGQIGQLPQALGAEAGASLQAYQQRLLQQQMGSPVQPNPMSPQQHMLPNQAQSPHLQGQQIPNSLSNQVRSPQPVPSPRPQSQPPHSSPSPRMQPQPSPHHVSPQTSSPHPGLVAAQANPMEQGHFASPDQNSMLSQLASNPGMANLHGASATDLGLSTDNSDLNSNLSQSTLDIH
Target sequence in this assay (Q16665 whole entry partner, the tested form may be a part): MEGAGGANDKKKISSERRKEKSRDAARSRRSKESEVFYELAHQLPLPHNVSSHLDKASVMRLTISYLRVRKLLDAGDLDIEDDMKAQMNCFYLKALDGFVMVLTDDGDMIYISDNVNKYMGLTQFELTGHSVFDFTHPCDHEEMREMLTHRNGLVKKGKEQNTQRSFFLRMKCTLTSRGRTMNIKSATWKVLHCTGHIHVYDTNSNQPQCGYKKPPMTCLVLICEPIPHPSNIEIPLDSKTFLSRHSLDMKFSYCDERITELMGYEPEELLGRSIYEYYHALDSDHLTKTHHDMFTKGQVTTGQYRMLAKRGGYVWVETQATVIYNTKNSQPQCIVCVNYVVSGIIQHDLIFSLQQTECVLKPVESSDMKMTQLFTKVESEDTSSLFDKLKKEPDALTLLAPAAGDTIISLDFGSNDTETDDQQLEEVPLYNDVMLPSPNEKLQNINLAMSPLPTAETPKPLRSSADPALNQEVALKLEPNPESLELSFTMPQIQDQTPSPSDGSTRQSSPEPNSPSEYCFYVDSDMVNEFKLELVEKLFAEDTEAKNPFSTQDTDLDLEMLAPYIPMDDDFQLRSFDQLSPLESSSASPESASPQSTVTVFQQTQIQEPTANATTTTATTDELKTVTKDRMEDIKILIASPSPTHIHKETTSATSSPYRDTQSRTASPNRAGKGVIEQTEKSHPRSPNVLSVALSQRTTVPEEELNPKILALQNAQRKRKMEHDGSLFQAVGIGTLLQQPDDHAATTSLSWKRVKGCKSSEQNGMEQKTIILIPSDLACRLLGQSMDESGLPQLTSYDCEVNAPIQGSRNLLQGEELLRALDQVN

[2] = biological target: T1, Histone acetyltransferase p300/Hypoxia-inducible factor 1-alpha; assay: Inhibition of human C-terminal activation domain of HIF-1alpha/CH1 domain of GST-p300 interaction using F-786-826 by fluorescence polarization based assay; type: protein-complex assay
[3] = biological target: T1, Histone acetyltransferase p300/Hypoxia-inducible factor 1-alpha; assay: Inhibition of deferoxamine-induced HIF-1alpha/resin-bound GST-p300 interaction human HeLa cells using coomasie blue staining by GST pull-down assay; type: cell-based
Target sequence in this assay (Q09472 2-2414 limits assumed): as the sequence (Q09472 2-2414 limits assumed) above
Target sequence in this assay (Q16665 whole entry partner, the tested form may be a part): as the sequence (Q16665 whole entry partner, the tested form may be a part) above

[4] = biological target: Hypoxia-inducible factor 1-alpha (Homo sapiens) (UniProt Q16665); assay: Inhibition of HIF-1alpha in deferoxamine treated human HeLa cells assessed as reduction of VEGF mRNA level at 100 uM after 5 hrs by RT-PCR analysis; type: cell-based
Sequence of Hypoxia-inducible factor 1-alpha (Homo sapiens) (Q16665 whole entry, looked up): as the sequence (Q16665 whole entry partner, the tested form may be a part) above

[5] = biological target: Hypoxia-inducible factor 1-alpha (Homo sapiens) (UniProt Q16665); assay: Effect on stabilization of HIF-1alpha in deferoxamine treated human HeLa cells at 50 to 500 uM by Western blot analysis; type: cell-based
HeLa [6] = assay: Cytotoxicity against human deferoxamine treated HeLa cells assessed as decrease of cell viability after 48 hrs by MTT assay; type: functional, cell-based
HeLa [7] = assay: Cytotoxicity against human deferoxamine treated HeLa cells assessed as decrease of cell viability after 24 hrs by MTT assay relative to control; type: functional

SMILES: CC(C)Cc1cc(CNC(=O)N2CCN(CC(=O)Nc3ccccc3Cl)CC2)nn1-c1ccccc1.Cl
- inhibition [1]: 80%
- IC50 [2]: 107 µM
- inhibition [3]: Active
- inhibition [4]: Active
- Activity [5]: inactive
- Activity (HeLa [6]): Dose-dependent effect
- Activity (HeLa [7]): 50%
